Experimental findings from PubChem BioAssay (NCI) are described below.

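All cell lines were grown in 96-well plates and treated with compound for 48 hours. The concentration for 50% growth inhibition is given as GI50. TGI: concentration producing complete growth inhibition.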

Holding throughout (test): NCI tumour cell line growth inhibition, 48 h
The subject of assay [1] is NCI-H460 lung.
Assay [2] has as its system HCT-116 colon.
For assay [3], the system named is ACHN renal.
Assay [4] concerns MDA-MB-435.
The subject of assay [5] is CAKI-1 renal.
In assay [6] the test system is OVCAR-5 ovarian.
Assay [7] deals with M14 melanoma.
Assay [8] concerns TK-10 renal.
Assay [9] deals with SF-268 CNS.
Assay [10] relates to SNB-75 CNS.

As to `CC[N+](CC)=c1ccc2nc3c(cc(NCc4ccccc4)c4ccccc43)oc-2c1`, the GI50 was 201 nM in assay [1]; 154 nM in [2]; 398 nM in [3]; 180 nM in [4]; 231 nM in assay [5]; 681 nM in assay [6]. Besides, the GI50 is 273 nM in assay [7], 671 nM in assay [8], 307 nM in assay [9] and 385 nM in assay [10]. Besides, the TGI was determined as 435 nM in assay [1]; 709 nM in [2]; 1980 nM in assay [3]; 352 nM in assay [4]; 1540 nM in assay [5]; 2190 nM in assay [6]. Also, the TGI in [7] is 750 nM; in assay [8] it was 2290 nM; in assay [9], 1510 nM; in assay [10], 808 nM.
As for `Nc1c(C(=O)c2cccc(OCCN3CCOCC3)c2)cnn1-c1ccc(F)cc1`, the GI50 in assay [1], in assay [2], in assay [3], in assay [4], in assay [5] and in [6] was above 25000 nM in each case. Moreover, the GI50 in assay [7], in assay [8], in [9] and in [10] was above 25000 nM throughout. The TGI in assay [1], in assay [2], in [3], in assay [4], in assay [5] and in assay [6] was above 25000 nM in each case. The TGI in assay [7], in [8], in assay [9] and in [10] was above 25000 nM in each case.
As to `CCCCCCCCOc1ccc(/C=N/Nc2cc(C)nc3ccc(Cl)cc23)cc1`, the GI50 in assay [1] is 2010 nM; in assay [2] it was 1830 nM; in [3], 1740 nM; in [4], 1730 nM; in [5], 1690 nM; in [6] it was 1790 nM. The GI50 in assay [7] is 1750 nM; in [8], 1910 nM; in [9], 2210 nM; in assay [10], 1860 nM. Moreover, the TGI in [1] worked out at 3870 nM; in assay [2] it was 3810 nM; in assay [3] it was 3130 nM; in [4] it was 3160 nM; in assay [5], 3110 nM; in [6] it was 3200 nM. In addition, the TGI in assay [7] turned out to be 3510 nM; in assay [8], 3330 nM; in assay [9], 4180 nM; in assay [10], 3490 nM.
